The supplement of paper PMC10307832

How the values were obtained:
Assay in all cases: relative viability (nuclei count vs DMSO), 5 days (fraction); higher = more cells survive
[1] = compound: CN(NC(=O)CC(=O)NN(C)C(=S)c1ccccc1)C(=S)c1ccccc1 [Elesclomol] + CC(C)C[C@H](NC(=O)[C@H](Cc1ccccc1)NC(=O)c1cnccn1)B(O)O [Bortezomib] (partner 0.002 µM)
Outline: (§1)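 Lung cancer cell lines were pin-tool dosed in 1536-well plates on the day after seeding, with either a lone drug or a fixed anchor-drug dose plus five library-drug doses (not always all listed) in √10 steps. Nuclei were counted on 4× images after 5 days. Relative viability is the ratio of treated-well to vehicle-well nuclei counts, with each value a median of duplicate plates.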

[2] = compound: CN(NC(=O)CC(=O)NN(C)C(=S)c1ccccc1)C(=S)c1ccccc1 [Elesclomol] + C[C@]1(O)C[C@@H](c2nc(-c3ccc4ccc(-c5ccccc5)nc4c3)c3c(N)nccn32)C1 [Linsitinib] (partner 1 µM)
Outline: as §1

[3] = compound: CN(NC(=O)CC(=O)NN(C)C(=S)c1ccccc1)C(=S)c1ccccc1 [Elesclomol] + Cc1cc(Nc2cc(N3CCN(C)CC3)nc(Sc3ccc(NC(=O)C4CC4)cc3)n2)n[nH]1 [Tozasertib] (partner 0.1 µM)
Outline: as §1

[4] = compound: CN(NC(=O)CC(=O)NN(C)C(=S)c1ccccc1)C(=S)c1ccccc1 [Elesclomol] + N=C(N)NC(=N)NCCc1ccccc1 [Phenformin] (partner 250 µM)
Outline: as §1

[5] = compound: CN(NC(=O)CC(=O)NN(C)C(=S)c1ccccc1)C(=S)c1ccccc1 [Elesclomol] + Nc1nc2[nH]cc(CCc3ccc(C(=O)N[C@@H](CCC(=O)O)C(=O)O)cc3)c2c(=O)[nH]1 [Pemetrexed] (partner 0.2 µM)
Outline: as §1

Row | Cell Line | relative viability ([1]; first compound 0.003162 µM) | relative viability ([1]; first compound 0.01 µM) | relative viability ([1]; first compound 0.03162 µM) | relative viability ([1]; first compound 0.1 µM) | relative viability ([2]; first compound 0.003162 µM) | relative viability ([2]; first compound 0.01 µM) | relative viability ([2]; first compound 0.03162 µM) | relative viability ([2]; first compound 0.1 µM) | relative viability ([3]; first compound 0.003162 µM) | relative viability ([3]; first compound 0.01 µM) | relative viability ([3]; first compound 0.03162 µM) | relative viability ([3]; first compound 0.1 µM) | relative viability ([4]; first compound 0.003162 µM) | relative viability ([4]; first compound 0.01 µM) | relative viability ([4]; first compound 0.03162 µM) | relative viability ([4]; first compound 0.1 µM) | relative viability ([5]; first compound 0.003162 µM) | relative viability ([5]; first compound 0.01 µM) | relative viability ([5]; first compound 0.03162 µM) | relative viability ([5]; first compound 0.1 µM)
1 | NCI-H2009 | 0.929 | 0.229 | 0.115 | 0.0727 | 1.25 | 0.677 | 0.183 | 0.142 | 0.684 | 0.219 | 0.112 | 0.0954 | 0.344 | 0.239 | 0.243 | 0.107 | 1.02 | 0.982 | 0.312 | 0.115
2 | NCI-H23 | 1.07 | – | 0.603 | 0.119 | 0.572 | – | 0.504 | 0.143 | 0.349 | 0.311 | 0.36 | 0.128 | 0.822 | 0.671 | 0.77 | 0.506 | 0.787 | 0.568 | 0.503 | 0.12
3 | NCI-H1355 | 1.15 | 1.08 | 0.828 | 0.24 | 0.803 | 0.663 | 0.486 | 0.17 | 0.505 | 0.538 | 0.332 | 0.173 | 0.464 | 0.409 | 0.391 | 0.312 | 1.02 | 0.992 | 0.721 | 0.206
4 | NCI-H2023 | 0.744 | 0.374 | 0.146 | 0.0637 | 0.697 | 0.319 | 0.209 | 0.0484 | 0.282 | 0.192 | 0.0576 | 0.0475 | 0.349 | 0.217 | 0.145 | 0.0642 | 0.172 | 0.128 | 0.0613 | 0.0421
5 | NCI-H2087 | 0.896 | 0.49 | 0.502 | 0.495 | 1.01 | 0.607 | 0.587 | 0.696 | 0.18 | 0.187 | 0.158 | 0.0781 | 0.376 | 0.343 | 0.284 | 0.181 | 0.588 | 0.685 | 0.609 | 0.108
6 | NCI-H838 | 0.825 | 0.581 | 0.621 | 0.609 | 1.02 | 0.907 | 0.879 | 0.688 | 0.282 | 0.25 | 0.18 | 0.172 | 0.536 | 0.508 | 0.455 | 0.152 | 0.254 | 0.217 | 0.252 | 0.195
7 | LC-2-ad | 0.978 | 0.337 | 0.11 | 0.0678 | 0.91 | 0.761 | 0.117 | 0.112 | 0.394 | 0.274 | 0.277 | 0.231 | 0.514 | 0.271 | 0.269 | 0.331 | 0.294 | 0.269 | 0.236 | 0.201
8 | HCC-78 | 0.487 | 0.419 | 0.447 | 0.494 | 0.425 | 0.521 | 0.497 | 0.408 | 0.378 | 0.426 | 0.399 | 0.483 | 0.631 | 0.758 | 0.539 | 0.615 | 0.901 | 0.856 | 0.911 | 0.956
9 | LOU-NH91 | 0.537 | 0.525 | 0.423 | 0.463 | 0.925 | 0.856 | 0.703 | 0.542 | 0.631 | 0.575 | 0.581 | 0.568 | 0.754 | 0.571 | 0.419 | 0.439 | 0.401 | 0.404 | 0.487 | 0.375
10 | NCI-H1734 | 0.957 | 0.738 | 0.405 | 0.12 | 0.907 | 0.745 | 0.8 | 0.154 | 0.276 | 0.24 | 0.126 | 0.0951 | 0.369 | 0.343 | 0.38 | 0.191 | 0.436 | 0.507 | 0.234 | 0.11
11 | NCI-H520 | 0.481 | 0.248 | 0.2 | 0.0916 | 1.04 | 0.912 | 0.354 | 0.0801 | 0.442 | 0.355 | 0.223 | 0.181 | 0.555 | 0.535 | 0.61 | 0.105 | 0.724 | 0.779 | 0.335 | 0.109
12 | UMC-11 | 0.802 | 0.495 | 0.491 | 0.352 | 1.02 | 1.05 | 0.672 | 0.615 | 0.205 | 0.199 | 0.185 | 0.168 | 0.312 | 0.343 | 0.328 | 0.31 | 0.806 | 0.655 | 0.478 | 0.336
13 | NCI-H596 | 1 | 1.04 | 0.95 | 0.156 | 1.12 | 1.13 | 0.978 | 0.267 | 0.925 | 0.828 | 0.598 | 0.178 | 0.734 | 0.693 | 0.714 | 0.335 | 0.523 | 0.452 | 0.489 | 0.211
14 | NCI-H1755 | 1.06 | 0.831 | 0.951 | 0.304 | 1.01 | 1.04 | 0.967 | 0.223 | 0.625 | 0.47 | 0.421 | 0.288 | 0.624 | 0.466 | 0.605 | 0.57 | 0.383 | 0.359 | 0.426 | 0.348
15 | SK-LU-1 | 1.45 | 0.424 | 0.38 | 0.116 | 1.11 | 0.835 | 0.405 | 0.12 | 0.336 | 0.271 | 0.238 | 0.15 | 0.643 | 0.287 | 0.305 | 0.161 | 1.01 | 0.889 | 0.625 | 0.521
16 | NCI-H647 | 0.924 | 0.773 | 0.589 | 0.0718 | 1.1 | 0.801 | 0.753 | 0.0738 | 0.388 | 0.212 | 0.0671 | 0.0175 | 0.546 | 0.234 | 0.104 | 0.0401 | 0.172 | 0.158 | 0.139 | 0.0481
